Measurements published in ChEMBL document CHEMBL3997829, “Discovery of novel substituted octahydropyrrolo[3,4-c]pyrroles as dual orexin receptor antagonists for insomnia treatment” (Bioorg Med Chem Lett, 2017).
In brackets after ≈: the same amount, converted by molar mass.

Key:
[1] = Ratio of drug level in brain to plasma in Sprague-Dawley rat at 10 mg/kg, po at 1 hr; assay type: ADME, organism-based; details: read-out: BPR
Brain [2] = assay: Drug uptake in Sprague-Dawley rat brain at 10 mg/kg, po at 4 hrs; assay type: ADME, organism-based; details: in vivo
[3] = Plasma concentration in Sprague-Dawley rat at 10 mg/kg, po at 0.3 hrs; assay type: ADME, organism-based
[4] = Ratio of drug level in brain to plasma in Sprague-Dawley rat at 10 mg/kg, po at 0.5 hrs; assay type: ADME, organism-based; details: read-out: BPR
Brain [5] = assay: Drug uptake in Sprague-Dawley rat brain at 10 mg/kg, po at 1 hr; assay type: ADME, organism-based; details: in vivo
[6] = Thermodynamic solubility of the compound in phosphate buffer at pH 7.4 by HPLC method; assay type: physicochemical; details: read-out: Therm_solubility
[7] = Plasma concentration in Sprague-Dawley rat at 10 mg/kg, po at 4 hrs; assay type: ADME, organism-based
[8] = target: T1, Orexin/Hypocretin receptor type 1 (Homo sapiens, UniProt O43613); assay: Antagonist activity at human orexin 1 receptor expressed in HEK293 cells assessed as inhibition of orexin-induced calcium mobilization after 60 mins by FLIPR assay; assay type: functional, cell-based
T1 sequence (O43613 whole entry): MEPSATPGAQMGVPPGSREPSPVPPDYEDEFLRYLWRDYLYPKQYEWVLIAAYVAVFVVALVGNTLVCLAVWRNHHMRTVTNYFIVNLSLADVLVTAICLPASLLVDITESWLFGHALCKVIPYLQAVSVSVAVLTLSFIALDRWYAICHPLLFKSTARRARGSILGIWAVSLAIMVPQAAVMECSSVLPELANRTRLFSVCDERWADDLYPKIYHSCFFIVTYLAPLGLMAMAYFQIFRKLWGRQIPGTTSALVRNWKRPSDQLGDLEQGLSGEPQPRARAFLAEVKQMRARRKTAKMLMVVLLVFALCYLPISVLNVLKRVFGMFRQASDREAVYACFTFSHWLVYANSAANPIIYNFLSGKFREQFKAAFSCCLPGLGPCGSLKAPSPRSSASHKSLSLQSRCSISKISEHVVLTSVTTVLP

Brain [9] = assay: Drug uptake in Sprague-Dawley rat brain at 10 mg/kg, po at 0.3 hrs; assay type: ADME, organism-based; details: in vivo
Orexin receptor type 2 = target: T2, Orexin receptor type 2 (Homo sapiens, UniProt O43614); assay: Antagonist activity at human orexin 2 receptor expressed in HEK293 cells assessed as inhibition of orexin-induced calcium mobilization after 60 mins by FLIPR assay; assay type: functional, cell-based
T2 sequence (O43614 whole entry): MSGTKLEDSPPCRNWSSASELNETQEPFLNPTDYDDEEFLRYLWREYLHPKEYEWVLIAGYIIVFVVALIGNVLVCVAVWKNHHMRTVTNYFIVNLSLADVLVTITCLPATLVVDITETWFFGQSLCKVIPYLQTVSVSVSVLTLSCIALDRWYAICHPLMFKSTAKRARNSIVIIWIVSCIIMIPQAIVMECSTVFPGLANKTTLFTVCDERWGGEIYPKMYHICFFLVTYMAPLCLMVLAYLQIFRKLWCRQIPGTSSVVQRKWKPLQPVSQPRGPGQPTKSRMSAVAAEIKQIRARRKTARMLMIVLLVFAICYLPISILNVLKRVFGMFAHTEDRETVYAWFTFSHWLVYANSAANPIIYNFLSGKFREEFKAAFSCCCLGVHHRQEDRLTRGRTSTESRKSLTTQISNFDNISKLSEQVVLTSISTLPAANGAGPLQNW

[10] = Plasma concentration in Sprague-Dawley rat at 10 mg/kg, po at 1 hr; assay type: ADME, organism-based
[11] = Tmax in Sprague-Dawley rat at 15 mg/kg, po; assay type: ADME, organism-based; details: in vivo
[12] = Oral bioavailability in Sprague-Dawley rat at 15 mg/kg; assay type: ADME, organism-based; details: in vivo
[13] = Ratio of drug level in brain to plasma in Sprague-Dawley rat at 10 mg/kg, po at 4 hrs; assay type: ADME, organism-based; details: read-out: BPR
[14] = Clearance in Sprague-Dawley rat at 2 mg/kg, iv; assay type: ADME, organism-based; details: in vivo
[15] = Cmax in Sprague-Dawley rat at 15 mg/kg, po; assay type: ADME, organism-based; set-up: dose 15 mg/kg, route oral; details: in vivo
[16] = AUC in Sprague-Dawley rat at 15 mg/kg, po; assay type: ADME, organism-based; details: in vivo
[17] = Half life in Sprague-Dawley rat at 2 mg/kg, iv; assay type: ADME, organism-based; details: in vivo
Rattus norvegicus [18] = assay: Sleep promoting activity in Sprague-Dawley rat assessed as effect on rapid eye movement sleep time at 90 mg/kg, po measured over 2 hrs by electroencephalogram method; assay type: functional
Rattus norvegicus [19] = assay: Sleep promoting activity in Sprague-Dawley rat assessed as increase in slow wave sleep time at 90 mg/kg, po measured over 2 hrs by electroencephalogram method; assay type: functional
Rattus norvegicus [20] = assay: Sleep promoting activity in Sprague-Dawley rat assessed as decrease in active wake time at 90 mg/kg, po measured over 2 hrs by electroencephalogram method; assay type: functional

Cc1ccc(-n2nccn2)c(C(=O)N2C[C@@H]3CN(c4ncc5cc(F)ccc5n4)C[C@@H]3C2)c1
Kp at 1 h [1]: 0.13 | Drug uptake (Brain [2]; BLD = below limit of detection): Bld | concentration at 0.3 h [3]: 567 nM | Kp at 0.5 h [4]: 0.14 | Drug uptake (Brain [5]): 43 nmol/kg | solubility thermodynamic [6]: 2.6 µM (≈ 1.15 µg/mL) | concentration at 4 h [7]: 24 nM | IC50 [8]: 0.216 µM | Drug uptake (Brain [9]): 80 nmol/kg | IC50 (Orexin receptor type 2): 0.108 µM | concentration at 1 h [10]: 328 nM

Cc1ccc(-n2nccn2)c(C(=O)N2C[C@@H]3CN(c4nc5cc(Cl)ccc5o4)C[C@@H]3C2)c1
Kp at 1 h [1]: 0.15 | Drug uptake (Brain [2]): 111 nmol/kg | concentration at 0.3 h [3]: 3370 nM | Kp at 0.5 h [4]: 0.19 | Tmax [11]: 25.2 min | bioavailability [12]: 27% | Kp at 4 h [13]: 0.27 | clearance [14]: 32 mL/min/kg | Drug uptake (Brain [5]): 376 nmol/kg | solubility thermodynamic [6]: < 2 µM | Cmax [15]: 2100 nM | AUC [16]: 5.4 µM·h | concentration at 4 h [7]: 409 nM | IC50 [8]: 0.226 µM | Drug uptake (Brain [9]): 643 nmol/kg | half-life [17]: 43.8 min | IC50 (Orexin receptor type 2): 0.206 µM | concentration at 1 h [10]: 2500 nM

Cc1ccc(-n2nccn2)c(C(=O)N2C[C@@H]3CN(c4nc5cc(F)ccc5o4)C[C@@H]3C2)c1
Kp at 1 h [1]: 0.05 | Drug uptake (Brain [2]; BLD = below limit of detection): Bld | concentration at 0.3 h [3]: 1260 nM | Kp at 0.5 h [4]: 0.06 | Drug uptake (Brain [5]): 42 nmol/kg | solubility thermodynamic [6]: < 2 µM | concentration at 4 h [7]: 77 nM | IC50 [8]: 0.293 µM | Drug uptake (Brain [9]): 74 nmol/kg | IC50 (Orexin receptor type 2): 0.131 µM | concentration at 1 h [10]: 859 nM

Cc1ccc(-n2nccn2)c(C(=O)N2CCC3CN(c4nc5cc(Cl)ccc5o4)CC32)c1 (stereo not drawn)
IC50 [8]: 2.97 µM | IC50 (Orexin receptor type 2): 0.354 µM

Cc1ccc(-n2nccn2)c(C(=O)N2C[C@@H]3CN(c4nc5cc(OC(F)(F)F)ccc5o4)C[C@@H]3C2)c1
IC50 [8]: 3.92 µM | IC50 (Orexin receptor type 2): 4.71 µM

Cc1ccc(-n2nccn2)c(C(=O)N2CCN(c3nc4cc(Cl)ccc4o3)CC[C@H]2C)c1 [SUVOREXANT]
Time (Rattus norvegicus [18]): 13.6 min | Time (Rattus norvegicus [19]): 33.5 min | Time (Rattus norvegicus [20]): 46.9 min

Cc1ccc(-n2nccn2)c(C(=O)N2C[C@@]3(C)CN(c4nc5cc(Cl)ccc5o4)C[C@@]3(C)C2)c1
IC50 [8]: 1.89 µM | IC50 (Orexin receptor type 2): 5.99 µM

Cc1ccc(-n2nccn2)c(C(=O)N2C[C@@H]3CN(c4nc5cc(C(F)(F)F)ccc5o4)C[C@@H]3C2)c1
IC50 [8]: 1.78 µM | IC50 (Orexin receptor type 2): 0.508 µM

Cc1ccc(-n2nccn2)c(C(=O)N2CCCC3CN(c4nc5cc(Cl)ccc5o4)CC32)c1 (stereo not drawn)
IC50 [8]: > 10 µM | IC50 (Orexin receptor type 2): > 10 µM

Cc1ccc(-n2nccn2)c(C(=O)N2C[C@@H]3CN(c4ncnc5ccccc45)C[C@@H]3C2)c1
IC50 [8]: > 10 µM | IC50 (Orexin receptor type 2): 1.68 µM

Cc1ccc(-n2nccn2)c(C(=O)N2C[C@@H]3CN(c4nc(C)c(C)c(C)n4)C[C@@H]3C2)c1
IC50 [8]: > 10 µM | IC50 (Orexin receptor type 2): 4.85 µM

Cc1ccc(-n2nccn2)c(C(=O)N2C[C@@H]3CN(c4nc5ccccc5n4C)C[C@@H]3C2)c1
IC50 [8]: 1.64 µM | IC50 (Orexin receptor type 2): 0.775 µM

O=C(c1cc(OC(F)(F)F)ccc1-n1nccn1)N1C[C@@H]2CN(c3nc4cc(Cl)ccc4o3)C[C@@H]2C1
IC50 [8]: 0.502 µM | IC50 (Orexin receptor type 2): 1.52 µM

Cc1ccc(-n2nccn2)c(C(=O)N2C[C@@H]3CN(c4nc5cc(Cl)ccc5s4)C[C@@H]3C2)c1
IC50 [8]: 0.327 µM | IC50 (Orexin receptor type 2): 1.19 µM
